# According to publication PMC10706420, “A New Drug Discovery Platform: Application to DNA Polymerase Eta and Apurinic/Apyrimidinic Endonuclease 1” (International Journal of Molecular Sciences, 2023):
# Read-outs that look alike come from different tables or passages of the source.
# Experiments:
# [1] = biological target: Endonuclease IV (Escherichia coli, UniProt P0A6C1); settings: from IC50 for APE1 and EndoIV
# [2] = biological target: T1, APE1 (Homo sapiens, UniProt P27695); experiment: in-house high-throughput in vitro biochemical assay for APE1 endonuclease activity (fluorescence-based)
# T1 construct: made in house
# T1 sequence (P27695 whole entry): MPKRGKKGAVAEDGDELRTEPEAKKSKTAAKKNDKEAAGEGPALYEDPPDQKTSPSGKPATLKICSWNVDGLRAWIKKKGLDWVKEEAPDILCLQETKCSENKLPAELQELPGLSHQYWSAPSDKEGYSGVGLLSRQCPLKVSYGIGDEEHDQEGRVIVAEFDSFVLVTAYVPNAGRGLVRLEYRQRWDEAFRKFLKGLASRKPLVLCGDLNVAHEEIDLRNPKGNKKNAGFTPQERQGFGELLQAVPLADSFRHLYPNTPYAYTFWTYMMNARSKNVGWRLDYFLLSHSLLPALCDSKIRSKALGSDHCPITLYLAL
smiles,measurement,setting,value
CC(=O)Nc1sc2c(c1-c1nc3ccccc3s1)CCN(C(C)C)C2 [Inhibitor III],selectivity for APE1 over EndoIV,[1],3 fold
same,IC50,[2],2000 nM
same,IC50,[2]; listed as APE1 Inhibitor III,~2000 nM
